From ChEMBL document CHEMBL3596172 (J Med Chem, 2015) come the findings set out here.

A word on the Ki: it is a dissociation constant, usually derived from enzyme kinetics or from competition with a known ligand.

Sequence of D(3) dopamine receptor (P35462 whole entry): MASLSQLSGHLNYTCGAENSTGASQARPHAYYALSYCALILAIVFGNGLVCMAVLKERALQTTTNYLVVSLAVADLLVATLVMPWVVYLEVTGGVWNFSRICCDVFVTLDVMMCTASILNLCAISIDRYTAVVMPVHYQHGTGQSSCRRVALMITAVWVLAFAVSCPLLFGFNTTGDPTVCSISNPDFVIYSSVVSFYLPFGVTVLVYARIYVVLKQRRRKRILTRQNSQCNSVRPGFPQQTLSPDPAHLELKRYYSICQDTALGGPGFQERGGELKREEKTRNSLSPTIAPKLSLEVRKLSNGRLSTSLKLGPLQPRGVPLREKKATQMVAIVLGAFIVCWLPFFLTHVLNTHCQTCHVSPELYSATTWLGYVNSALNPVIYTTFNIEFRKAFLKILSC

This experiment addresses D(3) dopamine receptor (Homo sapiens, UniProt P35462). The experiment can be described thus: biochemical.
Description: Displacement of [3H]-N-methylspiperone from human dopamine D3 receptor (unknown origin) expressed in HEK293 cells after 1 hr by liquid scintillation counting
Regarding `COc1ccccc1N1CCN(CCCCNC(=O)c2ccc3ccccc3n2)CC1`, the Ki stood at 3.46 nM. In turn, `O=C(NCCCCN1CCN(c2cccc3ccccc23)CC1)c1cc2ccccc2o1` had a Ki of 0.244 nM.

For `COc1c(Cl)cccc1N1CCN(CC(O)CCNC(=O)c2cnc3ccccc3c2)CC1` (stereo not given), the Ki worked out at 31.6 nM. This Ki lies about 130-fold higher than the previous one. Consider `O=C(NCCCCN1CCN(c2cccc(Cl)c2Cl)CC1)c1cnc2ccc(F)cc2c1`, for which the Ki amounted to 0.57 nM. This Ki lies about 55-fold lower than the previous one. For `O=C(NCCC(O)CN1CCN(c2cccc(Cl)c2Cl)CC1)c1cnc2ccc(F)cc2c1` (stereo not given), the Ki came to 8.05 nM.

`COc1c(Cl)cccc1N1CCN(CCCCNC(=O)c2cc3ccccc3o2)CC1` had an inhibition constant (Ki) of 0.907 nM. In the case of `COc1ccc2[nH]c(C(=O)NCCCCN3CCN(c4cccc5ccccc45)CC3)cc2c1`, the inhibitory constant (Ki) is 0.173 nM. Under `COc1ccccc1N1CCN(CC(O)CCNC(=O)c2ccc3ccccc3n2)CC1` (stereo not given) stands 97.9 nM. `COc1ccccc1N1CCN(CCCCNC(=O)c2ccc3cc(F)ccc3n2)CC1` had a Ki of 2.51 nM. For the molecule `COc1ccccc1N1CCN(CC(O)CCNC(=O)c2ccc3cc(F)ccc3n2)CC1` (stereo not given), affinity was put at a Ki of 53.1 nM. `COc1ccccc1N1CCN(CCCCNC(=O)c2cnc3ccc(F)cc3c2)CC1` yielded an inhibition constant Ki of 2.14 nM.

`COc1ccccc1N1CCN(CC(O)CCNC(=O)c2cnc3ccc(F)cc3c2)CC1` (stereo not given) displayed an inhibition constant Ki of 44.8 nM. Against the preceding molecule, the Ki is about 21-fold higher.

`COc1ccccc1N1CCN(CC(O)CCNC(=O)c2cnc3ccc(C)cc3c2)CC1` (stereo not given) yielded a Ki of 52.9 nM. Consider `COc1ccc2ncc(C(=O)NCCC(O)CN3CCN(c4ccccc4OC)CC3)cc2c1` (stereo not given), for which the inhibitory constant (Ki) was 69.9 nM.

`COc1ccccc1N1CCN(CC(O)CCNC(=O)c2ccc3cccnc3c2)CC1` (stereo not given) came in with an inhibition constant Ki of 37.7 nM. This Ki is about 1.9-fold lower than that of the molecule before.
